The values below come from US20010046504A1, “CYCLOPHOSPHAMIDE FILM-COATED TABLETS” (priority 1998, published 2001).

The format of the series is physicochemical. The procedure:
Investigations on the Compatibility of Cyclophosphamide with Various Tableting Auxiliaries […] The pressed tablets were stored at 31° C. for 6 months. The decomposition of the active compound was carried out [sic] by means of chloride determination.

Turning to Preswollen starch [Auxiliary 9], the “Stability of cyclophosphamide in the presence of auxiliary (in words)” value is “somewhat indifferent”.
